Measurements reported in ChEMBL document CHEMBL4665705 (J Med Chem, 2020).
Converted amounts (≈) assume the structure as drawn.

What was measured:
[1] = Oral bioavailability in Beagle dog; type: ADME, organism-based, Canis lupus familiaris; details: in vivo
[2] = molecular target: Cytochrome P450 3A4 (Homo sapiens, UniProt P08684); experiment: Metabolism-dependent inhibition of CYP3A4 (unknown origin); type: ADME
[3] = Clearance in Beagle dog at 0.5 mg/kg, iv administered as 1 hr infusion on day 1 and day 7 to achieve a target dose of 1 mg/kg by LC-MS/MS analysis relative to liver blood flow; type: ADME, organism-based, Canis lupus familiaris; details: in vivo, 168 h, dose 0.5-1 mg/kg, time 7 day
[4] = Clearance in Wistar Han rat at 1 mg/kg, iv administered as 1 hr infusion or 3 mg/kg, po administered via gavage by LC-MS/MS analysis relative to liver blood flow; type: ADME, organism-based; details: in vivo
[5] = test system: Blood; experiment: Inhibition of LPS-induced MCP1 production in human whole blood preincubated for 30 mins followed by LPS addition measured after 24 hrs by immunoassay; type: functional, tissue-based
[6] = molecular target: Bromodomain testis-specific protein (Homo sapiens, UniProt Q58F21, Y66A); experiment: Displacement of Alexa Fluor 647 labelled ligand from 6His-Thr tagged BRDT BD2/BD1 Y66A mutant (1 to 397 residues) (unknown origin) measured after 30 mins by TR-FRET assay
[7] = molecular target: Bromodomain-containing protein 3 (Homo sapiens, UniProt Q15059, Y348A); experiment: Displacement of Alexa Fluor 647 labelled ligand from 6His-Thr tagged BRD3 BD1/BD2 Y348A mutant (1 to 435 residues) (unknown origin) measured after 30 mins by TR-FRET assay
[8] = molecular target: Bromodomain-containing protein 3 (Homo sapiens, UniProt Q15059, Y73A); experiment: Displacement of Alexa Fluor 647 labelled ligand from 6His-Thr tagged BRD3 BD2/BD1 Y73A mutant (1 to 435 residues) (unknown origin) measured after 30 mins by TR-FRET assay
[9] = molecular target: Bromodomain-containing protein 2 (Homo sapiens, UniProt P25440, Y113A); experiment: Displacement of Alexa Fluor 647 labelled ligand from 6His-Thr tagged BRD2 BD2/BD1 Y113A mutant (1 to 473 residues) (unknown origin) measured after 30 mins by TR-FRET assay
[10] = molecular target: Albumin (Homo sapiens, UniProt P02768); experiment: Binding affinity to HSA relative to control; type: ADME; details: isolated protein
[11] = Solubility of the compound in pH 6.5 FaSSIF at 125 ug/ml measured after 16 hrs by HPLC analysis; type: physicochemical; details: dose 125 µg/ml
[12] = Fraction unbound in human blood measured after 4 hrs by LC-MS/MS analysis; type: ADME, tissue-based
[13] = Fraction unbound in Beagle dog blood measured after 4 hrs by LC-MS/MS analysis; type: ADME, tissue-based, Canis lupus familiaris
[14] = Fraction unbound in Wistar Han rat blood measured after 4 hrs by LC-MS/MS analysis; type: ADME, tissue-based
[15] = Half life in Beagle dog at 0.5 mg/kg, iv administered as 1 hr infusion on day 1 and day 7 to achieve a target dose of 1 mg/kg by LC-MS/MS analysis; type: ADME, organism-based, Canis lupus familiaris; details: in vivo, dose 0.5-1 mg/kg, time 7 day
[16] = Oral bioavailability in Wistar Han rat at 3 mg/kg by LC-MS/MS analysis; type: ADME, organism-based; details: in vivo
[17] = Volume of distribution at steady state in Beagle dog at 0.5 mg/kg, iv administered as 1 hr infusion on day 1 and day 7 to achieve a target dose of 1 mg/kg by LC-MS/MS analysis; type: ADME, organism-based, Canis lupus familiaris; details: in vivo, dose 0.5-1 mg/kg, time 7 day, read-out: Vdss
[18] = Half life in Wistar Han rat at 1 mg/kg, iv administered as 1 hr infusion or 3 mg/kg, po administered via gavage by LC-MS/MS analysis; type: ADME, organism-based; details: in vivo
[19] = Volume of distribution at steady state in Wistar Han rat at 1 mg/kg, iv administered as 1 hr infusion or 3 mg/kg, po administered via gavage by LC-MS/MS analysis; type: ADME, organism-based; details: in vivo, read-out: Vdss
[20] = Clearance in Beagle dog at 0.5 mg/kg, iv administered as 1 hr infusion on day 1 and day 7 to achieve a target dose of 1 mg/kg by LC-MS/MS analysis; type: ADME, organism-based, Canis lupus familiaris; details: in vivo, dose 0.5-1 mg/kg, time 7 day
[21] = Clearance in Wistar Han rat at 1 mg/kg, iv administered as 1 hr infusion or 3 mg/kg, po administered via gavage by LC-MS/MS analysis; type: ADME, organism-based; details: in vivo
[22] = Intrinsic clearance in human hepatocytes assessed per g tissue at 0.5 uM measured up to 60 mins by LC-MS/MS analysis; type: ADME, cell-based, Hepatocyte; details: 1 h, time <=45 min
[23] = Intrinsic clearance in Beagle dog hepatocytes assessed per g tissue at 0.5 uM measured up to 120 mins by LC-MS/MS analysis; type: ADME, cell-based, Canis lupus familiaris, Hepatocyte; details: 2 h
[24] = Intrinsic clearance in Wistar Han rat hepatocytes assessed per g tissue at 0.5 uM measured up to 60 mins by LC-MS/MS analysis; type: ADME, cell-based, Hepatocyte; details: 1 h, time <=45 min
[25] = molecular target: Bromodomain-containing protein 2 (Homo sapiens, UniProt P25440, Y386A)
[26] = buffer, pH 7.4
[27] = physchem; details: phosphate buffered saline, pH 7.4
[28] = in vitro; details: PAMPA, pH 7.4

Chain of Cytochrome P450 3A4 (P08684 whole entry, the tested form may be a part): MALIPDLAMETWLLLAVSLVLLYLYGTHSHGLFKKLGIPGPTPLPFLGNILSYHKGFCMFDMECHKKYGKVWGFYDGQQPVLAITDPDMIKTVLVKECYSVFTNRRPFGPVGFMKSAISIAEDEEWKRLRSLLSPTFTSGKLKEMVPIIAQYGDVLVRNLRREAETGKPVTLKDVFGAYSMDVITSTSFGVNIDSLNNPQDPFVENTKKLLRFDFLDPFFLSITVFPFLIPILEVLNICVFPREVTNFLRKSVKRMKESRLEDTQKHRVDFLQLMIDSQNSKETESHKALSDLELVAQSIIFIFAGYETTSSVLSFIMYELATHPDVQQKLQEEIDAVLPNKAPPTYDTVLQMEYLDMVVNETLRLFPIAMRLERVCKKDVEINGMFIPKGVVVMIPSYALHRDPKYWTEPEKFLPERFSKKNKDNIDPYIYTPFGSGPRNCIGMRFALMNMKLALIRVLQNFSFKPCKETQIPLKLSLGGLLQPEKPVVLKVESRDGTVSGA
Chain of Bromodomain-containing protein 3 (Homo sapiens, UniProt Q15059, Y348A) (Q15059 2-726 Y348A limits assumed): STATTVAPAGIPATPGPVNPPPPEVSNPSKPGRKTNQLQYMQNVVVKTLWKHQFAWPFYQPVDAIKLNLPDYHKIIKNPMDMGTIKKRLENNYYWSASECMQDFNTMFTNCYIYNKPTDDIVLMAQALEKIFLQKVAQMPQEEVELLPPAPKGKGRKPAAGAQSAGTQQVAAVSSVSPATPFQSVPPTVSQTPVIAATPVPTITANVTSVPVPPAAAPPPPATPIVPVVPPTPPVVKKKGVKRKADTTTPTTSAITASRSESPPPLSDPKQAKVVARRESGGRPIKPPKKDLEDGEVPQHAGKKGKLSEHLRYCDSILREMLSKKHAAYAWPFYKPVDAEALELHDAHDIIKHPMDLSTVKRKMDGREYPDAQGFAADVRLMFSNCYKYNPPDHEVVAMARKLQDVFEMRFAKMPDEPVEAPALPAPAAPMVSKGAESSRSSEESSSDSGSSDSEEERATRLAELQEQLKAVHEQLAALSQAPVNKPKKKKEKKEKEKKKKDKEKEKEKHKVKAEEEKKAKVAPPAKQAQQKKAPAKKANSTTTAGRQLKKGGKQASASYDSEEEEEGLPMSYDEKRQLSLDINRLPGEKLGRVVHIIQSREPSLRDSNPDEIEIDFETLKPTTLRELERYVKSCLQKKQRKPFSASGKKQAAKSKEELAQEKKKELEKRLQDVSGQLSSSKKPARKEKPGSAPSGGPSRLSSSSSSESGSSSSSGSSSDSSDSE
Chain of Bromodomain-containing protein 2 (Homo sapiens, UniProt P25440, Y386A) (P25440 whole entry Y386A): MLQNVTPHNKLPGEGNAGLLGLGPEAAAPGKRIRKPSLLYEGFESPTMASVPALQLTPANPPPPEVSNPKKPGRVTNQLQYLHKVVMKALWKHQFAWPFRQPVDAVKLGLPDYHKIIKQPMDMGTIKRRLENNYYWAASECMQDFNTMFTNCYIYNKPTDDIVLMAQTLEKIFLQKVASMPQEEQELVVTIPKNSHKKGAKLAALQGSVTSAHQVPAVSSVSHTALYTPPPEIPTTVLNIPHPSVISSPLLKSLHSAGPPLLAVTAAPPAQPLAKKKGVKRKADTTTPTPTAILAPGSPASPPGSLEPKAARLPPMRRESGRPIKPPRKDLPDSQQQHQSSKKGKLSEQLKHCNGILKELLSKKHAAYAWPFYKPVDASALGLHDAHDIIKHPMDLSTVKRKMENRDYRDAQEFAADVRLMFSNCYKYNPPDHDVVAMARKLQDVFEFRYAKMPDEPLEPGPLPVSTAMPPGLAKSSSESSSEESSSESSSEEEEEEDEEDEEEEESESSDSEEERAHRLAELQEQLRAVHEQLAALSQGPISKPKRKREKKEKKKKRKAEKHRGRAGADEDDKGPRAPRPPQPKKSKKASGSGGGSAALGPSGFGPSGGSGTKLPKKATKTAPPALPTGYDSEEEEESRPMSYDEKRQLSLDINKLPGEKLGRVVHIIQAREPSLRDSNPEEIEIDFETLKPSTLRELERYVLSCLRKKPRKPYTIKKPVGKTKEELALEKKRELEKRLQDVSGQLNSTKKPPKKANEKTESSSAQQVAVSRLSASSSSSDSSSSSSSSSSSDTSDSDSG
Chain of Albumin (P02768 whole entry): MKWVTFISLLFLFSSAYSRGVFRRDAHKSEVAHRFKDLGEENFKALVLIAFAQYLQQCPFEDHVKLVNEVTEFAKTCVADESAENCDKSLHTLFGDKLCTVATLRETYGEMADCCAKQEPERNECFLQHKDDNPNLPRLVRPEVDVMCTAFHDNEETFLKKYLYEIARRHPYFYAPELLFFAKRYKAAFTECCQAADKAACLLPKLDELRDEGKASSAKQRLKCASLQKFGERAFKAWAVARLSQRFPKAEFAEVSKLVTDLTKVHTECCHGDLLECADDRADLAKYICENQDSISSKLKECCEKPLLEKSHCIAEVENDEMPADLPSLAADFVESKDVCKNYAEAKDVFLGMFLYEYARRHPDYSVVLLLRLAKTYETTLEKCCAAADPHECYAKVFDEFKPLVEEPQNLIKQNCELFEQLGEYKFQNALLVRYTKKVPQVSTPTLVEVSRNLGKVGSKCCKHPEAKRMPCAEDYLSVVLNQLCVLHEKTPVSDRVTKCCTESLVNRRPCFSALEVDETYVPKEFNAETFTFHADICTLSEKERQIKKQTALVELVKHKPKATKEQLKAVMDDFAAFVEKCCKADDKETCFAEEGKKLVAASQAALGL
Chain of Bromodomain-containing protein 3 (Homo sapiens, UniProt Q15059, Y73A) (Q15059 2-726 Y73A limits assumed): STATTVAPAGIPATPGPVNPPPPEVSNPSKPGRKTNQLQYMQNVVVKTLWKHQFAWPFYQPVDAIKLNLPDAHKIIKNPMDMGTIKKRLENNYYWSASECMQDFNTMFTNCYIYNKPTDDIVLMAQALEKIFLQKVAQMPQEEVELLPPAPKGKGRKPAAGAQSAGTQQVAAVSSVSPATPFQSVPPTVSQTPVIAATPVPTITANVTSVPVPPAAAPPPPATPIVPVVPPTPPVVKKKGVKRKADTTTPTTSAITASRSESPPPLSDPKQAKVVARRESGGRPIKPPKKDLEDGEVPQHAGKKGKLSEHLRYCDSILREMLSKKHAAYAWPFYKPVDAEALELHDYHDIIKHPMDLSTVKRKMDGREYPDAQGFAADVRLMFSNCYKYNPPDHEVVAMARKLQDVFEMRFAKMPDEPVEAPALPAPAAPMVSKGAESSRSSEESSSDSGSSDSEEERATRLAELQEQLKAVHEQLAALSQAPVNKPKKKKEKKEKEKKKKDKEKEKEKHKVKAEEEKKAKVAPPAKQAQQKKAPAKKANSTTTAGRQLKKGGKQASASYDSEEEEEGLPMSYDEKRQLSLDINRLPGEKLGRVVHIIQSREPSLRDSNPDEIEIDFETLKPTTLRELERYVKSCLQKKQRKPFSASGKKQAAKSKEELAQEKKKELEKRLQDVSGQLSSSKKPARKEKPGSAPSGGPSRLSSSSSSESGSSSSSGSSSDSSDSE
Chain of Bromodomain-containing protein 2 (Homo sapiens, UniProt P25440, Y113A) (P25440 whole entry Y113A, the tested form may be a part): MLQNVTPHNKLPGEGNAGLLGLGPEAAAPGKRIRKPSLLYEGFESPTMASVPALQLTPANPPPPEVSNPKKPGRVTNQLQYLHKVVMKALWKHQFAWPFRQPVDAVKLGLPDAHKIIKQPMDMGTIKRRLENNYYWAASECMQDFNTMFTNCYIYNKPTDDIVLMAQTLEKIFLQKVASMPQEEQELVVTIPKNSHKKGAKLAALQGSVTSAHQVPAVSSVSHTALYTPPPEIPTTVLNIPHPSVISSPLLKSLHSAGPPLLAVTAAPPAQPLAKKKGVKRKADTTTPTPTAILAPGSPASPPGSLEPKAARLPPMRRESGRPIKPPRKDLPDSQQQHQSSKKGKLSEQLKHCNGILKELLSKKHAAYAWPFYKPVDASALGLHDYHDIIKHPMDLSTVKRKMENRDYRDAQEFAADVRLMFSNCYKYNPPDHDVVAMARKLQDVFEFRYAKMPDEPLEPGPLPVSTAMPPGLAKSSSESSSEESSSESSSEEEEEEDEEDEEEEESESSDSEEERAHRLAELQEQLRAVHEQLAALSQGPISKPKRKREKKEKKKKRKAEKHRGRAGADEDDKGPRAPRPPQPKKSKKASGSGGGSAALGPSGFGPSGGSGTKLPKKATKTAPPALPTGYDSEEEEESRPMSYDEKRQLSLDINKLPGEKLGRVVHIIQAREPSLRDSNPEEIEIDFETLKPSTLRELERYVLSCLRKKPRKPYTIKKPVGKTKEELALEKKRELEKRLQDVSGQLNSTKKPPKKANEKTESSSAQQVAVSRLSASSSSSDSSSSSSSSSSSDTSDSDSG

SMILES: CC(=O)Nc1c(F)cc(C(=O)N[C@H]2CC[C@H](O)CC2)cc1O[C@@H](C)c1ccccc1 [GSK046]
- bioavailability [1]: 66%
- IC50 [2]: > 39800 nM
- CL [3]: 36%
- CL [4]: 46%
- IC50 [5]: 31.6 nM
- IC50 [6]: 200 nM
- IC50 [7]: 39800 nM
- IC50 [8]: 100 nM
- IC50 [9]: 251 nM
- Activity [10]: 47%
- solubility at 16 h [11]: 996 µg/mL (≈ 2400 µM)
- fraction unbound at 4 h [12]: 0.32
- fraction unbound at 4 h [13]: 0.33
- fraction unbound at 4 h [14]: 0.44
- half-life [15]: 42 min
- bioavailability [16]: 31%
- Vd [17]: 0.91 L/kg
- half-life [18]: 30 min
- Vd [19]: 0.91 L/kg
- clearance [20]: 20 mL/min/kg
- clearance [21]: 36 mL/min/kg
- CLH [22]: < 0.45 mL/min
- CLH [23]: < 1.26 mL/min
- CLH [24]: < 0.8 mL/min
- IC50 [25]: 10000 nM
- CHI [26]: 2.8
- solubility kinetic [27]: 91 µg/mL (≈ 220 µM)
- Papp [28]: 1.6 ×10⁻⁶ cm/s
